Structures are written as SMILES. pKd: −log10 of the molar value. Read-outs that look alike come from different tables or passages of the source.

One test has as its target AurB (Homo sapiens, UniProt Q96GD4). Briefly: KiNativ, MOLM13 live cells. It counts as cell-based. The conditions noted are these: MOLM-13; 100 nM, 2 hours; Lys1; read-out: Inhibition vs DMSO. The procedure: (§1) Samples were analyzed by KiNativ in situ kinase profiling by ActivX Biosciences.
Another test concerns the target CaMKK2 (Homo sapiens, UniProt Q96RR4). Description: KiNativ, MOLM13 live cells. It counts as cell-based. The conditions noted are these: MOLM-13, 2 h, 100 nM. On the procedure:
as §1

Another test concerns the target CHK2 (Homo sapiens, UniProt O96017). Briefly: KiNativ, MOLM13 live cells. It counts as cell-based. The conditions noted are these: MOLM-13, 2 h, 100 nM. The procedure:
as §1

A further test addresses FRAP (Homo sapiens, UniProt P42345). Briefly: KiNativ, MOLM13 live cells. It counts as cell-based. The conditions noted are these: MOLM-13; 100 nM, 2 hours; ATP; read-out: Inhibition vs DMSO. On the procedure: as §1
Another test has as its target MST2 (Homo sapiens, UniProt Q13188). Briefly: KiNativ, MOLM13 live cells. It counts as cell-based. The note with it: MOLM-13; 100 nM, 2 hours; Lys1; read-out: Inhibition vs DMSO. On the procedure:
as §1

In another test the target is p70S6Kb (Homo sapiens, UniProt Q9UBS0). Description: KiNativ, MOLM13 live cells. It counts as cell-based. The conditions noted are these: MOLM-13, 2 h, 100 nM. On the procedure: as §1
The next test addresses T1, PAN3 (Homo sapiens, UniProt Q58A45).
T1 sequence (Q58A45 1-887): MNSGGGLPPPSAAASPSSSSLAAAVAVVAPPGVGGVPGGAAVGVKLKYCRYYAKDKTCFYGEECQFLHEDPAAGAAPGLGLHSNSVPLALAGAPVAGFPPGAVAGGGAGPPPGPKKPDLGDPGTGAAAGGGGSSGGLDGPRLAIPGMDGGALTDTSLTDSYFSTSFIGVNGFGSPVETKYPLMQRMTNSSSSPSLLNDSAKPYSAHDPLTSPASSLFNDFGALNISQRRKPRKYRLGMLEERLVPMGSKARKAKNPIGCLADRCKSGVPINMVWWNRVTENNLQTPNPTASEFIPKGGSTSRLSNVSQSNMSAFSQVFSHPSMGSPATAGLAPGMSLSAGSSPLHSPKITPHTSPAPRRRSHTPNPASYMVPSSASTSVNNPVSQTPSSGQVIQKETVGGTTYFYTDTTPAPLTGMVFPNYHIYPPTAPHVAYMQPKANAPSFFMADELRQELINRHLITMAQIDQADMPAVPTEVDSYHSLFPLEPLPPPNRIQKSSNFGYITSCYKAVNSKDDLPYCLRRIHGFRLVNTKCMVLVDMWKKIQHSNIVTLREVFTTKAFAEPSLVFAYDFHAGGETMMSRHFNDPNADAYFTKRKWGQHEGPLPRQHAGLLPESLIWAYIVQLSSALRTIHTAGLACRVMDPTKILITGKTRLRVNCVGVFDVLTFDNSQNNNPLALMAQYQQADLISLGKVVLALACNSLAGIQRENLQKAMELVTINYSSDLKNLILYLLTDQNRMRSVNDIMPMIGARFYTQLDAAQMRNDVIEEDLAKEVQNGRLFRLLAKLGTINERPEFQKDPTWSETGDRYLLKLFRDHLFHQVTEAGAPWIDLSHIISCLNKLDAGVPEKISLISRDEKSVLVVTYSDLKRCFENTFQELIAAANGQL
Briefly: KiNativ, MOLM13 live cells. The conditions noted are these: MOLM-13, 2 h, 100 nM, ATP, read-out: Inhibition vs DMSO. It counts as cell-based. The procedure: as §1

The target in a further test is NDR1 (Homo sapiens, UniProt Q15208). Briefly: KiNativ, OCI cells live cell. It counts as cell-based. The note with it: 2 h.
In the next test the target is MARK2 (Homo sapiens, UniProt Q7KZI7). Briefly: KiNativ, OCI cells live cell. It counts as cell-based. The note with it: 2 h, labeling site Lys1, peptide […].
In another test the target is T2, GCK (Homo sapiens, UniProt Q12851).
T2 sequence (Q12851 1-820): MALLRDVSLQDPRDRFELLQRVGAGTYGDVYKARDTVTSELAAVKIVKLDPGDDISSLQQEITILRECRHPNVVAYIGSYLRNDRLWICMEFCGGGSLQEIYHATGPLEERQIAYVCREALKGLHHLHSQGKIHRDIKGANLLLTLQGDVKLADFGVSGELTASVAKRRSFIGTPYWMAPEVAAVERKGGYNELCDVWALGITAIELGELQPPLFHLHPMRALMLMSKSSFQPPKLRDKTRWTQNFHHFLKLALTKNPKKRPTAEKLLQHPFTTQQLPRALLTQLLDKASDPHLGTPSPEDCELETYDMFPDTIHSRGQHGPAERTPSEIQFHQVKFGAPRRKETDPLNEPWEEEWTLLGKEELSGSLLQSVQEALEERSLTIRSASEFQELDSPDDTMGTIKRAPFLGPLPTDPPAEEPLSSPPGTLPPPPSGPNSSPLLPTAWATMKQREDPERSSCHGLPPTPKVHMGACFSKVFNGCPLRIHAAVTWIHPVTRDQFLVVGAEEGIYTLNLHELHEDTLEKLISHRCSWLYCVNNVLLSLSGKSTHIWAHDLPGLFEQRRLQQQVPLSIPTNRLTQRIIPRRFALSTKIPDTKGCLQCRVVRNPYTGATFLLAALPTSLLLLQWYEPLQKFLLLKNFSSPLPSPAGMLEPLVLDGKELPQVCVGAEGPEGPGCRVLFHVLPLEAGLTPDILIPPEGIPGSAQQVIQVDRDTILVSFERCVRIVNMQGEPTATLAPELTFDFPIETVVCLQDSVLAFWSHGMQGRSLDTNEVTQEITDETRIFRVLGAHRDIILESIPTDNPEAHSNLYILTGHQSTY
Briefly: KdELECT binding assay. The arrangement: purchased Eurofins DiscoverX.

In a further test the target is T3, MAP2K4 (Homo sapiens, UniProt P45985).
T3 sequence (P45985 1-399): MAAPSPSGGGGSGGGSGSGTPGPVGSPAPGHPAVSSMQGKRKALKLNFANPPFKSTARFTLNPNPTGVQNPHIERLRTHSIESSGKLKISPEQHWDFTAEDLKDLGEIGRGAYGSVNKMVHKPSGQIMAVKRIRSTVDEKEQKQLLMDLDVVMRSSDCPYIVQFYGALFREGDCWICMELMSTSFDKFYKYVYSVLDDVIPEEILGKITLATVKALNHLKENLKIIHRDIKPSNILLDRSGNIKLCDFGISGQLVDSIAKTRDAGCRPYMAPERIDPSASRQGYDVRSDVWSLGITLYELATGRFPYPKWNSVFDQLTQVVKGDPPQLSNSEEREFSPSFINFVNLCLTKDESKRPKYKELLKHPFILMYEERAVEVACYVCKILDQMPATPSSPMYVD
Description: KiNativ, OCI cells live cell. It counts as cell-based. The conditions noted are these: 2 h.

Where [1] appears, read: Lys1, read-out: Inhibition vs DMSO.
Where [2] appears, read: Lys2, read-out: Inhibition vs DMSO.

CHK2, sequence (O96017 whole entry): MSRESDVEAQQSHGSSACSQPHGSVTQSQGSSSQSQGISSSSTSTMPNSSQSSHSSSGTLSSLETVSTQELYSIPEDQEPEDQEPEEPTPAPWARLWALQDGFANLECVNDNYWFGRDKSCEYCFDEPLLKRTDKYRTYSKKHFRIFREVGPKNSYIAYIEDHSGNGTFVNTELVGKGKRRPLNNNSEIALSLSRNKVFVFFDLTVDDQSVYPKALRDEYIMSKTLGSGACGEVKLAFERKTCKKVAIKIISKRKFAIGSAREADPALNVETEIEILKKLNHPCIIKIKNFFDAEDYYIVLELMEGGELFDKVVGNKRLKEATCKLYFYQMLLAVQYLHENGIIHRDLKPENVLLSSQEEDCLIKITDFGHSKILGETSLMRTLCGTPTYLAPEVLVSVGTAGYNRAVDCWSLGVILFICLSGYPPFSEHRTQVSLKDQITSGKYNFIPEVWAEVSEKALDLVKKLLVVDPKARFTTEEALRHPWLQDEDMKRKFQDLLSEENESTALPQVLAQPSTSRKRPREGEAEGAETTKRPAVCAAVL
p70S6Kb, sequence (Q9UBS0 whole entry): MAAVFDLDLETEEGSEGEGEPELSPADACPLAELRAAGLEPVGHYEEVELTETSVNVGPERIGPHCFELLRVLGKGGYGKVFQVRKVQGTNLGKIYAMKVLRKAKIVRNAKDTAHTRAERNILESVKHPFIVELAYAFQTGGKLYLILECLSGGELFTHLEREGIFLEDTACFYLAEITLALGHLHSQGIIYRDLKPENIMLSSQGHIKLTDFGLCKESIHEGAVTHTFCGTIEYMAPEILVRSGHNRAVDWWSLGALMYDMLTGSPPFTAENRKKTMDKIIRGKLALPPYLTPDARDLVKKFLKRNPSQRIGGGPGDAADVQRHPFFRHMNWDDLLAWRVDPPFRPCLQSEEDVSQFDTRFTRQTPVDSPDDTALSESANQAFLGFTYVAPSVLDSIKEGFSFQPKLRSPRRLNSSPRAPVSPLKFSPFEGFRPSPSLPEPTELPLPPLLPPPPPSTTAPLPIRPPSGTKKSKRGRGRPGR
NDR1, sequence (Q15208 whole entry): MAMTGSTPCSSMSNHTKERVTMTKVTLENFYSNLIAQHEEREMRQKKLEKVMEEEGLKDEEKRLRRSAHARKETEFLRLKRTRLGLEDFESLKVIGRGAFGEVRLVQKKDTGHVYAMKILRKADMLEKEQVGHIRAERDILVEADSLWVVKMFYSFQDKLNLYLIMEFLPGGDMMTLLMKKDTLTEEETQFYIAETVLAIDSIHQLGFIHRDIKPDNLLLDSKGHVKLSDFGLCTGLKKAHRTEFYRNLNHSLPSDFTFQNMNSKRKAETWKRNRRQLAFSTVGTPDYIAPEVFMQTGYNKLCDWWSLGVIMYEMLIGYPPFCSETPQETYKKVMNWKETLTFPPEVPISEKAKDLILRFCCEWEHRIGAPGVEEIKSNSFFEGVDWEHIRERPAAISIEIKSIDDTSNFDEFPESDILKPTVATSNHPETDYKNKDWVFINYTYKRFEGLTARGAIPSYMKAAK
CaMKK2, sequence (Q96RR4 whole entry): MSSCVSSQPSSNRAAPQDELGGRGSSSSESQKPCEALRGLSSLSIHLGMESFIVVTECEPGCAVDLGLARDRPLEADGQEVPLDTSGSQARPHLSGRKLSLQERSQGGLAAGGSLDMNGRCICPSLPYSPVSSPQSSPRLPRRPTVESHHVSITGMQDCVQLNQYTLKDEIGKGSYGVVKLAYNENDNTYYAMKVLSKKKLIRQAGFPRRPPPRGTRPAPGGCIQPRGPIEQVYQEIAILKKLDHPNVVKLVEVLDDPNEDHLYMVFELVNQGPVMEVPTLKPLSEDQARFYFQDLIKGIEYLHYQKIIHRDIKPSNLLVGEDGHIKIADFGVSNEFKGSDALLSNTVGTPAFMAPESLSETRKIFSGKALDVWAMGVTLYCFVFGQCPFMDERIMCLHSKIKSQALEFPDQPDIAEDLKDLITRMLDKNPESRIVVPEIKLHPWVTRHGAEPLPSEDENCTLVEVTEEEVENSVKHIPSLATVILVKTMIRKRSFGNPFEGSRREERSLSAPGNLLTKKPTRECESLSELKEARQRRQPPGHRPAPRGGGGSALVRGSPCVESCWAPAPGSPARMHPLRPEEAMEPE
AurB, sequence (Q96GD4 whole entry): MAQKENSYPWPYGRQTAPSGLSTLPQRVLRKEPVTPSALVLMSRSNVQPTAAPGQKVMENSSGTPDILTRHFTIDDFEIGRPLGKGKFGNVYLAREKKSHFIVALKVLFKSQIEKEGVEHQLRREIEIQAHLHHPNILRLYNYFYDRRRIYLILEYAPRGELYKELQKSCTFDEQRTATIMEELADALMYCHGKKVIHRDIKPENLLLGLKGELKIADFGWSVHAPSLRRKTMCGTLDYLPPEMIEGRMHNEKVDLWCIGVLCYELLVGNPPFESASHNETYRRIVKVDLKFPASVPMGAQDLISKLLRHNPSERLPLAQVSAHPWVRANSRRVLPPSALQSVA
MARK2, sequence (Q7KZI7 whole entry): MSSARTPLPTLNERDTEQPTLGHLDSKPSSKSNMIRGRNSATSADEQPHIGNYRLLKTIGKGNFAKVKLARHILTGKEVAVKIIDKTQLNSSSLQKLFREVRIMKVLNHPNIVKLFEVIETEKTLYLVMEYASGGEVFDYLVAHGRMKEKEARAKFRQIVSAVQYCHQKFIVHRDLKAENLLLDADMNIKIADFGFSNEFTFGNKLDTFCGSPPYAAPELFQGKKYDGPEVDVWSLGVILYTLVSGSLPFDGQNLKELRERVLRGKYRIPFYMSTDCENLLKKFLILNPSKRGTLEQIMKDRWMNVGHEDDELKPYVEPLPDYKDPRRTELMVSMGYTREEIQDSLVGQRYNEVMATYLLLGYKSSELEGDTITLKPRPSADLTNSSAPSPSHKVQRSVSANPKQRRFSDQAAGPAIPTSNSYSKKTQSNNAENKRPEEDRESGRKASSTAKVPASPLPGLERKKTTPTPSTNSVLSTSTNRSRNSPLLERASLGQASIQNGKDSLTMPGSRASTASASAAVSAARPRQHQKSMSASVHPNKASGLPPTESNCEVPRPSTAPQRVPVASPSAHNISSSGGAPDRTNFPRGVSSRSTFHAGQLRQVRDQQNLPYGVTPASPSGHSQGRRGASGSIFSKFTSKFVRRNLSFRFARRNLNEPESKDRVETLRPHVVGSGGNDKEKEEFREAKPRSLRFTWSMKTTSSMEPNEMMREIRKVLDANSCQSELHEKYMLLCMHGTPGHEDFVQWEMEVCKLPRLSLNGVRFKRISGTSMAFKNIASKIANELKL
MST2, sequence (Q13188 whole entry): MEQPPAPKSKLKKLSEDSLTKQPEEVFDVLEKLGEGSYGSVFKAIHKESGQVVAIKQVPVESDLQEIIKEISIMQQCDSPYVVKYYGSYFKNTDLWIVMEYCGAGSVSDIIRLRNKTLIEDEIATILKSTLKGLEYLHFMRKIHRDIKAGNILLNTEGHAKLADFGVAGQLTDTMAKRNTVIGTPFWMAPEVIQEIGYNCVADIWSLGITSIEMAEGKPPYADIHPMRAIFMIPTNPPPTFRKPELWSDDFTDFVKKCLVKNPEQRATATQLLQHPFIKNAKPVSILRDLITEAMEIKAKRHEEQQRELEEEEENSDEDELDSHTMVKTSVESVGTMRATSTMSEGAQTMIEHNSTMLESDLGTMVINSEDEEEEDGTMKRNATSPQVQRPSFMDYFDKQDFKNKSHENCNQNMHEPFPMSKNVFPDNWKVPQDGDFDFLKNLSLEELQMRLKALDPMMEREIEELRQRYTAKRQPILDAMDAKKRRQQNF

As usually defined, the inhibition is the drop in the measured response relative to a control, in per cent. The term pKd denotes −log10 of the Kd, conventionally taken in molar units. Read a low pKd as a high Kd. Turning to `CN1CCN(Cc2ccc(Nc3ncc(Cl)c(Nc4ccccc4S(=O)(=O)N(C)C)n3)cc2)CC1` [TP-0903], the inhibition at 0.1 µM was 60.1% at AurB; 40.8% on CaMKK2 (setting [1]); 36.1% at CaMKK2 (setting [2]); 11.3% at CHK2 (setting [1]); -23.4% at CHK2 (setting [2]); -9.8% at FRAP. The inhibition at 0.1 µM was 7.5% on MST2; 10.1% at p70S6Kb (setting [1]); -12.6% on p70S6Kb (setting [2]); 11.2% at PAN3 (IQKSSNFGYITSCYK); -0.5% on PAN3 (VMDPTKILITGK); 12.3% against NDR1 (labeling site Lys1, peptide DTGHVYAMKILR). Also, the inhibition at 0.1 µM against NDR1 (labeling site Lys2, peptide DIKPDNLLLDSK) was -7.7%; on MARK2 it was 37.7%; against MAP2K4 (labeling site Activation Loop, peptide LCDFGISGQLVDSIAKTR) it was -0.165%; against MAP2K4 (labeling site Lys1, peptide MVHKPSGQIMAVKR), 5.4%; at MAP2K4 (labeling site Lys2, peptide DIKPSNILLDR), 3.5%. The negative logarithm of the Kd (pKd) on GCK is 8.74.

For the origin of these results see article PMC7714403 (JCI Insight, 2020).
